Test results from paper PMC12644462, “A novel radiosensitizer α-sulfoquinovosyl-acylpropanediol (SQAP) inhibits DNA repair pathways and sensitize cells to cancer chemotherapeutic agents” (Scientific Reports, 2025).
Like-named read-outs stand apart in the source and are kept apart here.

How the values were obtained:
[1] = test system: seven canine cancer cell lines; settings: all seven cell lines
Protocol: Sensitivity to radiation or chemical reagents was assessed through colony formation assays. After trypsinized single cells were plated to form 20–200 colonies per dish and then treated with SQAP for 3 h in normoxia or hypoxia, the cells were irradiated. For drug sensitivity study, trypsinized cells were plated and then treated with various dosage of testing agents. After seven days of incubation, colonies were fixed, stained and scored. Regression curves were drawn from survival fraction, and D10 values (doses to achieve 10% cell survival) were calculated by Prism 8 (GraphPad software, San Diego, CA, USA) from at least three independent experiments. Oxygen enhancement ratio (OER) and sensitization enhancement ratio (SER) values were calculated from D10 values. OER values were calculated from the D10 value in hypoxia divided by the D10 value in normoxic condition. SER values were calculated from the D10 value without SQAP divided by the D10 value with SQAP.

[2] = test system: dogs and cats with cancer; settings: dogs and cats with cancer receiving radiation therapy ref 8, 9; cited from earlier work
[3] = test system: NHEJ activity in HeLa EJ5-GFP cells; experiment: EJ5-GFP DNA repair reporter assay; format: cell-based, human; settings: 30 µM SQAP, p < 0.05
Protocol: (§1) HR and NHEJ activities were assessed using the DR-GFP reporter system[25] and the EJ5-GFP reporter system, respectively. pDRGFP and pCBASceI were gifts from Dr. Maria Jasin (Addgene plasmid #26475 and #26477). pimEJ5GFP was a gift from Dr. Jeremy Stark (Addgene plasmid # 44026). The assays were performed as previously described. Briefly, HeLa cells expressing DR-GFP, or EJ5-GFP were transfected with a plasmid encoding an I-SceI endonuclease using FuGENE HD transfection reagent (Promega, Madison, WI, USA). HR and NHEJ frequencies were analyzed by counting GFP positive cells with a FACS Lyric flow cytometer (BD Biosciences, San Jose, CA, USA) at 48 h post-transfection. Drug treatment was performed 3 h after transfection, and medium was replaced with the drug until FACS analysis. Relative HR and NHEJ efficiencies were calculated by normalizing to control cell values. A total of 50,000 cells were counted for each condition.

[4] = test system: HR activity in HeLa DR-GFP cells; experiment: DR-GFP DNA repair reporter assay; format: cell-based, human; settings: 30 µM SQAP, p < 0.05
Protocol: as §1

[5] = test system: CHO wild type, EM9, xrs5 and 51D1 cells; experiment: Sister chromatid exchange assay; format: cell-based, Chinese hamster
Protocol: CHO cells were synchronized into G1 phase using mitotic shake-off method. Cells in the G1 phase were irradiated, and 10 µM of BrdU was added. After 20 h, colcemid was added for 6 h to arrest cells in metaphase. Collected cells were treated with hypotonic KCl solution and fixed using methanol: acetic acid (3:1) as the standard method. Metaphase chromosome spread was prepared on glass slides and treated with 5 µg/mL of Hoechst 33258 solution for 15 min and exposed to UVB for 15 min and treated with 2X SSC solution at 80 °C for 15 min. Cells were stained with 5% Giemsa stain solution. At least 50 metaphase spreads were analyzed for SCE scoring per experiment.

Topo I = biological target: T1, Topo I (Homo sapiens, UniProt P11387); experiment: Topoisomerase I assay; format: biochemical; settings: supercoiled pHOT1 DNA, 37 °C, 30 min
T1 sequence (P11387 1-765): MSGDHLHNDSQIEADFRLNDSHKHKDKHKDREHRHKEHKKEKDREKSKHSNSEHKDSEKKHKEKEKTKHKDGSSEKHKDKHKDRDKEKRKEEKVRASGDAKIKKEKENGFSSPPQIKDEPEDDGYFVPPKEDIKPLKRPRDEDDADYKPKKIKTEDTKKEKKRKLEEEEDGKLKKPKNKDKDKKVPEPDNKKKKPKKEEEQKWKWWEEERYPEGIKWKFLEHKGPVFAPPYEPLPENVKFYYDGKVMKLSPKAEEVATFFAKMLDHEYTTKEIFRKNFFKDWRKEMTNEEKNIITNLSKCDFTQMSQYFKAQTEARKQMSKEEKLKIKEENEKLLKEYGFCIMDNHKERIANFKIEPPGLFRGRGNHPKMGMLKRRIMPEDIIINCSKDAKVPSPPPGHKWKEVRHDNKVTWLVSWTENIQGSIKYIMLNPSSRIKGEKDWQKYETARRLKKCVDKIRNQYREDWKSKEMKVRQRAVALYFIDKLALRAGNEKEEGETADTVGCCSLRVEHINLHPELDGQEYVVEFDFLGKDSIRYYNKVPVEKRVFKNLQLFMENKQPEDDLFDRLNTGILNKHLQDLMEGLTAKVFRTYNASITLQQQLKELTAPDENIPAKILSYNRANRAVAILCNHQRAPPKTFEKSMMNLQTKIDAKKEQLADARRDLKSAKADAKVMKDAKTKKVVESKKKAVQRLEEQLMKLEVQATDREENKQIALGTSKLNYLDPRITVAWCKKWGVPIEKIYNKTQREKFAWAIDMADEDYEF
Protocol: (§2) For topoisomerase (Topo) I assay, a mixture of 125 ng of supercoiled pHOT1 DNA, 1U of Topo I enzyme, and various concentrations of SQAP in 1 mM Tris-HCl (pH7.9), 0.1 mM EDTA, 0.015 M NaCl, 0.01% BSA, 0.01 mM Spermidine and 0.5% glycerol was incubated at 37 °C for 30 min. For Topo II alpha assay, a mixture of 10 µL containing of 50 ng of […] DNA in 0.05 M Tris-HCl (pH8), 1U of Topo II alpha, various concentrations of SQAP in 0.15 M NaCl, 10 mM MgCl2, 0.5mM DTT, 30 µg/mL of BSA, 2 mM ATP was incubated at 37 °C for 30 min. After the reaction was terminated, electrophoresis was conducted at 50 V for 3 h, followed by ethidium bromide staining. DNA images were obtained by a Bio-Rad imager (Bio-Rad, Hercules, CA, USA) and quantified with Image Lab software (Bio-Rad).

[6] = test system: histone deacetylase 1 (HDAC1); design: method as in PMID 33577659; settings: cited from earlier work
Topo II alpha = Topo II alpha (Homo sapiens, UniProt P11388); experiment: Topoisomerase II alpha assay; format: biochemical; settings: kinetochore DNA, 37 °C, 30 min
Protocol: as §2

[7] = test system: poly (ADP-ribose) polymerase (PARP); design: method as in PMID 37973295; settings: cited from earlier work

Topo II alpha, sequence (P11388 whole entry): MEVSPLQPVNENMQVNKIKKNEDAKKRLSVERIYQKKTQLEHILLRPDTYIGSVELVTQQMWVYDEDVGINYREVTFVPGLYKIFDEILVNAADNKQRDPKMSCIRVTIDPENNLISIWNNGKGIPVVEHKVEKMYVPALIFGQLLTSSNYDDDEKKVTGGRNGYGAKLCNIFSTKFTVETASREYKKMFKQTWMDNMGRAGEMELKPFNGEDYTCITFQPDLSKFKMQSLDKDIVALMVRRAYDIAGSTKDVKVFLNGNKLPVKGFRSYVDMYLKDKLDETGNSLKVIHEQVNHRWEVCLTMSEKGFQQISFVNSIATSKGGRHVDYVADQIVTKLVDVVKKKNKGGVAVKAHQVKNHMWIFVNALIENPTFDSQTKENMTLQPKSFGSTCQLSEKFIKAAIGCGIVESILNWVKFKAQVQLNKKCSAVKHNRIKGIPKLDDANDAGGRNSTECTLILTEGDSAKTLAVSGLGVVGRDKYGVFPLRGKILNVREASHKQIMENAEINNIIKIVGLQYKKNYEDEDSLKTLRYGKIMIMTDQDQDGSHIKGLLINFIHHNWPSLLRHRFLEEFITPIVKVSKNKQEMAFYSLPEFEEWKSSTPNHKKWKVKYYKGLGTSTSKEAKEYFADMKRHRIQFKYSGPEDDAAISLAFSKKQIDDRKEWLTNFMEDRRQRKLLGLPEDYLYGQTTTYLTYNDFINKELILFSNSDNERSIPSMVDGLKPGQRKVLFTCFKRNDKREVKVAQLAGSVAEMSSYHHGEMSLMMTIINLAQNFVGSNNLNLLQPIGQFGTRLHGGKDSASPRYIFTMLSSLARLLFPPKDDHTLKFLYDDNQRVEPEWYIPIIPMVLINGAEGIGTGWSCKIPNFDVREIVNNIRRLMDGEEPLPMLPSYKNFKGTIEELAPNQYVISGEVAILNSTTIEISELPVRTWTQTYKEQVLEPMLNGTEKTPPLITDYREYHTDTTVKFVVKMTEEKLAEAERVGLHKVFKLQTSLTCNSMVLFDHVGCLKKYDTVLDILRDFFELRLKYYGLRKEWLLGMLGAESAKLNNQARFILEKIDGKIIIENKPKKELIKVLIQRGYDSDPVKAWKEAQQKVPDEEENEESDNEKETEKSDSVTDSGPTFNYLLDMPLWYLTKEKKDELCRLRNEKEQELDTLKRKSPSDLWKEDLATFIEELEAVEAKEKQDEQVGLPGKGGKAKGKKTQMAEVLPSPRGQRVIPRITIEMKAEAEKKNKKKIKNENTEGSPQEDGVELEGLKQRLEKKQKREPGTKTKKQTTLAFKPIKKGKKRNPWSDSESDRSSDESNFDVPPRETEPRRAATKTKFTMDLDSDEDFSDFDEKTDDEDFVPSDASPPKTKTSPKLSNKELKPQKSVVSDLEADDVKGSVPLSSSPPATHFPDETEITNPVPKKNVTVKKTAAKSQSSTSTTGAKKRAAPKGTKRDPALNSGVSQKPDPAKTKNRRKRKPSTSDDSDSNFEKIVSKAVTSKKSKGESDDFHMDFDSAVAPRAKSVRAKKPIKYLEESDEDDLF

Structure (SMILES): CCCCCCCCCCCCCCCCCC(=O)OCCCO[C@H]1O[C@H](CS(=O)(=O)O)[C@@H](O)[C@H](O)[C@H]1O [SQAP, Alpha-sulfoquinovosylacyl-1,3-propanediol]
- cytotoxicity of continuous exposure of SQAP (clonogenic survival) ([1]; 30 µM SQAP): tolerance
- cytotoxicity of continuous exposure of SQAP (clonogenic survival) ([1]; 60 µM SQAP): minimal cell viability
- adverse systemic events [2]: not detected
- NHEJ activity [3]: significantly reduced
- HR activity [4]: significantly reduced
- spontaneous sister chromatid exchange formation ([5]; 51D1 (rad51d mutant, HR deficient), non toxic SQAP concentrations): no reduction
- spontaneous sister chromatid exchange formation ([5]; CHO wild type, 5 to 20 µM SQAP, significant from 10 µM): reduced
- spontaneous sister chromatid exchange formation ([5]; EM9 (XRCC1 mutant), 5 to 20 µM SQAP, significant from 10 µM): reduced
- spontaneous sister chromatid exchange formation ([5]; xrs5 (Ku80 mutant), 5 to 20 µM SQAP, significant from 10 µM): reduced
- IC50 (Topo I): 25 µM
- HDAC1 enzymatic inhibition [6]: does not inhibit
- IC50 (Topo II alpha): 9 µM
- PARP inhibition [7]: inhibitory effect
